Assays:
[1] = target: T1, Rh-PDE-TMD (SrRh-PDE transmembrane domain) (Salpingoeca rosetta, UniProt F2TZN0); assay: X-ray crystallography, […] Å; assay type: binding; settings: covalent; Schiff base at Lys296 in TM7; LCP crystals, pH 5.0
T1 construct: gene PTSG_02023; rhodopsin / transmembrane domain (TM0-7), residues 33-316; C-terminal GFP-His8 cut by TEV; HEK293S GnTI-; dimer

[2] = target: T2, Rh-PDE wt (full-length) (Salpingoeca rosetta, UniProt F2TZN0); assay: HPLC hydrolysis assay, HEK293T homogenate; assay type: biochemical; settings: 100 μM cGMP, dark or light (Y52 filter), 3 mM MgCl2, pH 6.5, room temperature
T2 construct: gene PTSG_02023; full-length, RHO 1D4 tag, ~75 kDa; human codon-optimised gene expressed in HEK293T; dimer

[3] = target: the molecule itself; assay: SEC-MALS; SEC-MALLS, Superdex 200 Increase 10/300, 4 °C, 20 mM Tris-HCl pH 8.0, 150 mM NaCl, 0.01% LMNG; three-detector method
[4] = target: the molecule itself; assay: high-speed atomic force microscopy (HS-AFM); purified full-length Rh-PDE reconstituted in an asolectin lipid bilayer, on APTES-treated mica, buffer without detergent, room temperature, tapping mode

CC1=C(/C=C/C(C)=C/C=C/C(C)=C/C=O)C(C)(C)CCC1 [all-trans retinal]
X-ray crystallography, 2.6 Å [1]: canonical rhodopsin-like topology with covalently linked retinal at Lys296 in TM7

Nc1nc2c(ncn2[C@@H]2O[C@@H]3COP(=O)(O)O[C@H]3[C@H]2O)c(=O)[nH]1 [cGMP]
HPLC hydrolysis assay, HEK293T homogenate [2]: The wild-type Rh-PDE showed three and twofold light-induced productions of cAMP and cGMP, respectively

B1: Rhodopsin phosphodiesterase transmembrane domain (Rh-PDE–TMD, residues 33–316) (domain or fragment, Salpingoeca rosetta, UniProt F2TZN0 33-316, looked up)
chain: GRGKRRAKTRNIAIASTKEVQWQGIFMIIVWLCVMGSLIFFANPEASRRVFAKFSHLQSFYGATSVAFAFATGLDILAYVNAVSDEKRVLSGILAYVDGVACISYLSMATLNLYFLVDSTQGNPVWLMRYAEWIITCPTLLYWCGLASRADRSSVSDIATADALLLAGGALSSILPSWPAFFVFAGSFATYIYVMLHMWGMFGKAMQPDFQPPPPLPRHALHLLRCEIVMSWSIFPLVEFLRRQGYIDFQVGEAMNCVADYAAKVGLAMIMVNCNLEQINALRV
modifications: covalently linked retinal at Lys296
notes: Rhodopsin phosphodiesterase (Rh-PDE) of Salpingoeca rosetta, transmembrane domain, residues 33-316; gene synthesised with human codon optimisation; TEV site between the protein and the GFP-His8 tag; also called SrRh-PDE–TMD; source: HEK293S GnTI- cells (pEG BacMam), purified (TALON, TEV cleavage, SEC) in LMNG/CHS; not shown: GFP-His8, C-terminal, cleaved
stoichiometry N [3]: 2

B2: Full-length rhodopsin phosphodiesterase from Salpingoeca rosetta (enzyme, UniProt F2TZN0 1-704, looked up)
chain: MGRKNAANSSMLQEASMNNYSMTSAASGASSSGRGKRRAKTRNIAIASTKEVQWQGIFMIIVWLCVMGSLIFFANPEASRRVFAKFSHLQSFYGATSVAFAFATGLDILAYVNAVSDEKRVLSGILAYVDGVACISYLSMATLNLYFLVDSTQGNPVWLMRYAEWIITCPTLLYWCGLASRADRSSVSDIATADALLLAGGALSSILPSWPAFFVFAGSFATYIYVMLHMWGMFGKAMQPDFQPPPPLPRHALHLLRCEIVMSWSIFPLVEFLRRQGYIDFQVGEAMNCVADYAAKVGLAMIMVNCNLEQINALRVQQMHSALTGMLKVMRKTNLSSSRMAQLDGVDDDVKSWIMNEFSGSTDGKGGDDAKAQQRARGRKGHSAAMDAEKLAASSLFTWDFDALDKSDEDLTAVCVRVFQELHVIEQFNIDEKKLRKWLQKVRTQYNKNPFHNWRHAVMVLHTTYLLLTSVATEFITEVELLAMLIAALSHDLDHNGLTNAFHINSRSELALVYNDQSVLENHHSHLAFEILLEKGCNVVENLDEDEFKRLRAVIINCILNTDMATHHTKLSKMEEVNRLGGFINLAENNDQRLFVLAVLLHTADLHNPIKPFESNKRWSARLQKEFNNQVELEAKMNLPSLPFMRGNDEESLAKGEIGFINFVVKPWHQQLSQAFPKLDFLLDTIDANLAEWKAIAESYRQMH
notes: Rhodopsin phosphodiesterase (Rh-PDE) of Salpingoeca rosetta, full length; also called full-length Rh-PDE; Rh-PDE (full); source: purified as the TMD constructs (HEK293S GnTI- cells) but in DDM/CHS; reconstituted in an asolectin lipid bilayer; not shown: GFP-His8, C-terminal, cleaved
stoichiometry N [4]: 2

Reference: paper PMC7644710, “Structural insights into the mechanism of rhodopsin phosphodiesterase” (Nature Communications, 2020)
